Experimental data from patent US20240391940A1, “FUSED RING-CONTAINING COMPOUND, APPLICATION THEREOF, AND COMPOSITION CONTAINING SAME” (GenEros Biopharma Ltd., priority 2020, published 2024).
Where “and” joins values, the source holds several entries; their conditions need not be identical. Identical values can stand only once. Entries after “also recorded” stand apart in the source; their conditions may differ. Like-named read-outs stand apart in the source and are kept apart here.

What was measured:
[1] = biological target: T1, hERG (Homo sapiens, UniProt Q12809); experiment: hERG ion channel inhibition, automated QPatch on CHO cells expressing hERG; assay type: cell-based; details: human, CHO cells stably expressing hERG channels
T1 construct: expressed in transfected cells; host or cells: CHO cells, stably transfected
T1 sequence (Q12809 whole entry): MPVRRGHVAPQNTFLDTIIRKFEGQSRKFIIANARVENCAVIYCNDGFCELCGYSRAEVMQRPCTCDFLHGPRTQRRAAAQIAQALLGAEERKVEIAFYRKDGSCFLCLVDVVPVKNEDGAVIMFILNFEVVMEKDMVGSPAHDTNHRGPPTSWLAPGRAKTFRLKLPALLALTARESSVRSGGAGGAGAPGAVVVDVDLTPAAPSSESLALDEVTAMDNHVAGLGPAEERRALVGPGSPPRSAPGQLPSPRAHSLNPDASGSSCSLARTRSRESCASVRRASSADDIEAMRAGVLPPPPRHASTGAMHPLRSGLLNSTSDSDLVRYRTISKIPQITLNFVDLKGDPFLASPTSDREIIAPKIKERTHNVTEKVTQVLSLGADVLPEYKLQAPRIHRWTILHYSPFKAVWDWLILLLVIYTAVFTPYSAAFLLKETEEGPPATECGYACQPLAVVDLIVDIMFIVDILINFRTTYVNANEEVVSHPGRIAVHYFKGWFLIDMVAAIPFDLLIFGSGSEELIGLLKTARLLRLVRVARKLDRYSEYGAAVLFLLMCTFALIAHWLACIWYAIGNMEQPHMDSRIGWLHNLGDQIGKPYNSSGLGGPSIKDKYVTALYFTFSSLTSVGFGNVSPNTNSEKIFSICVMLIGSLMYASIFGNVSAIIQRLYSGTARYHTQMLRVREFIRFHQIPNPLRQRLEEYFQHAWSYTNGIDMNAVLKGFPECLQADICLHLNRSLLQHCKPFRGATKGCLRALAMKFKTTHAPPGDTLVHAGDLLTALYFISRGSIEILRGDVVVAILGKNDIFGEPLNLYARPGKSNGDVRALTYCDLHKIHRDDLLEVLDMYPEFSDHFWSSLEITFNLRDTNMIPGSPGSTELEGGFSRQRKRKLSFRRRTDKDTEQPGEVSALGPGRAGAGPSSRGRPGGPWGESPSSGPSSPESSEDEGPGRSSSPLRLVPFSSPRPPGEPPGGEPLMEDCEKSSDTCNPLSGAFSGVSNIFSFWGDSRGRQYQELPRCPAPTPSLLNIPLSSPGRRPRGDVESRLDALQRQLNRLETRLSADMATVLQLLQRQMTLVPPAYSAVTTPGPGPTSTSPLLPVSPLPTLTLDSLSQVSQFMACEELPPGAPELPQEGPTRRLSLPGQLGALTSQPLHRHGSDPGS
Description: (§1) A CHO cell line stably transfected with cDNA and expressing hERG channels of P15 was used for the study.
(§2) Cells were maintained in Petri dishes or flasks at 37° C. in a humidified incubator with 5% CO2 and cultured in a medium containing Ham's F12, 10% (v/v) heat-inactivated FBS, 100 μg/mL hygromycin B and 100 μg/mL geneticin (from Invitrogen). The cells were allowed to grow and reach a confluency of about 80-90% under the above conditions. Before the experiment, the cells were treated with Detachin (from Genlantis) for 3-5 min, at 37° C., then gently mixed well with medium at room temperature, and titrated 15-20 times with a pipette. Then the cells were resuspended in a serum-free medium containing CHO—S-SFM II medium (from Invitrogen) buffered with HEPES (25 mM). The cells used in QPatch study must meet the following criteria: under microscopy examination, the majority of cells in suspension should be single and isolated; their viability should be greater than 95%, with only a small amount of debris and cell clumps (which may clog the holes in QPlate during whole-cell clamp recording); the cell density should be within the range of 3-8×10^6 cells/mL in the final suspension before application to the QPatch stir chamber. Cells under such conditions can be used for recording only within four hours of being harvested.
(§3) Data acquisition was performed using automated QPatch (Sophion Biosciences, Denmark). The cells were voltage-clamped at a holding potential of −80 mV. The hERG current was activated by depolarization at +20 mV for 5 s, after which the current was activated back to −50 mV for 2.5 s to remove the inactivation and observe the outward tail current. The maximum amount of tail current was used to determine hERG current amplitude.
(§4) Six doses (30, 10, 3, 1, 0.3 and 0.1 μM) were selected to obtain a fitted curve and IC^50. The compound was prepared into serial dilutions in 3, 1, 0.3 and 0.1 mM DMSO vehicle to the final M ranges before the QPatch test. 5-10 minutes' ultrasonication and vortexing were generally used for solution to help completely dissolve the compound. The final DMSO concentration was 0.1% or lower, except that for the 30 μM point, the DMSO concentration was about 0.3%.
(§5) After achieving break-in (whole-cell) configuration, the cells were recorded for 120 s to assess current stability. The voltage settings described above were then applied to the cells once every 15 s throughout the whole process. Only stable cells with recording parameters above threshold were allowed to enter the drug assessment procedure. All the experiments were conducted at room temperature (about 25° C.).
(§6) An external solution containing 0.1% DMSO (vehicle) was applied to the cells to establish a baseline. After allowing the current to stabilize for 3 min, the compound was added. The compound solution was added and the cells were kept in the test solution until the effect of the compound reached a steady state or for a maximum of 4 min. For dose response assays, the compound was applied cumulatively to the cells from low to high concentrations. Washing with external solution was performed after compound testing. The positive control cisapride was used in the experiments to test the same batch of cells used for test compounds to ensure the normal response and the good quality of the cells.

[2] = biological target: T2, hERG ion channel (Homo sapiens, UniProt Q12809); experiment: as above; assay type: cell-based; details: for Inhibitory activity against hERG (conclusion): 0.1-30 μM; for inhibition at 0.3 µM / inhibition at 1 µM / inhibition at 3 µM: human, CHO cells stably expressing hERG channels
T2 construct: expressed in transfected cells; host or cells: CHO cells, stably transfected
T2 sequence (Q12809 whole entry): as above
Description: as §1, §2, §3, §4, §5, §6

[3] = tested on: female BALB/c mice; experiment: Acute toxicity, single administration in mice; assay type: in vivo
Description: • Part I: Single administration. A total of 6 mice were used. They were randomly divided into 2 groups: the vehicle control and GEN1-284s (1000 mg/kg), dosed once by oral gavage and observed for 6 days, and changes in body weight and activities were recorded. • Part II: Multiple administrations. This experiment used a total of 6 mice. They were divided into two groups of 3: a GEN1-284s-1000 mg/kg group and a GEN1-284s-300 mg/kg group, and were intragastrically given GEN1-284s for 14 consecutive days at 200 μL each. The state and survival of the mice were observed every day, and their body weights were recorded. Two mice died 2 h after GEN1-284s-1000 mg/kg administration. The dose was changed to 600 mg/kg, and the experiment was continued.
This experiment used a total of 6 mice. They were randomly divided into two groups of 3: a vehicle group and a GEN1-284s-1000 mg/kg group, and were intragastrically dosed once on day 0 at 200 μL each. The state and survival of the mice were observed every day, and their body weights were recorded.
Changes in body weight and survival of the mice were observed during 6 days after the single administration, and changes in body weight and the survival of the mice were observed during 14 consecutive days of high-dose GEN1-284s administration.

[4] = read-out: % of hERG inhibition, Cell 1
[5] = read-out: % of hERG inhibition, Cell 2
[6] = read-out: Mean % hERG inhibition

Row | SMILES | inhibition at 0.1 µM [1, 4] | inhibition at 0.1 µM [1, 5] | inhibition at 0.1 µM [1, 6] | inhibition at 0.3 µM [1, 4] | inhibition at 10 µM [1, 4] | inhibition at 10 µM [1, 5] | inhibition at 10 µM [1, 6] | inhibition at 30 µM [1, 4] | inhibition at 30 µM [1, 5] | inhibition at 30 µM [1, 6] | Inhibitory activity against hERG (conclusion) [2] | inhibition at 0.3 µM [2, 5] | inhibition at 0.3 µM [2, 6] | inhibition at 1 µM [2, 4] | inhibition at 1 µM [2, 5] | inhibition at 1 µM [2, 6] | inhibition at 3 µM [2, 4] | inhibition at 3 µM [2, 5] | inhibition at 3 µM [2, 6] | other results
1 | O=C(Cc1ccc2ncccc2c1)N1CCC(n2c(=O)[nH]c3cccc(C(F)(F)F)c32)CC1 [GEN1-117, 1-(1-(2-(Quinolin-6-yl)acetyl)piperidin-4-yl)-7-(trifluoromethyl)-1H-benzo[d]imidazol-2(3H)-one] | 3.84% | -0.21% | 1.81% | 3.95% | 12.8% | 19.3% | 16% | 12.8% | 19.3% | 16% | no significant inhibitory activity against hERG | 4.17% | 4.06% | 7.99% | 13.4% | 10.7% | 11% | 13.3% | 12.2% | –
2 | O=C(Cc1ccc2ncccc2c1)N1CCC(n2c(=O)n(COP(=O)([O-])[O-])c3cccc(C(F)(F)F)c32)CC1.[Na+].[Na+] [GEN1-284 salt, (2-Oxo-3-(1-(2-(quinolin-6-yl)acetyl)piperidin-4-yl)-4-(trifluoromethyl)-2,3-dihydro-1H-benzo[d]imidazol-1-yl)methyl disodium phosphate] | 2.22% | 8.28% | 5.25% | 10.2% | 9.28% | 3.41% | 6.34% | 19.1% | 8.86% | 13.9% | no significant inhibitory activity against hERG | 2.25% | 6.24% | 2.88% | 0% | 1.44% | 0% | 2.66% | 1.33% | Changes in body weight after the single administration ([3]; 1000 mg/kg P.O once on day 0, Day 0, individual mice F4-F6): 23.5 and 21.2 and 21.1; Changes in body weight after the single administration ([3]; 1000 mg/kg P.O once on day 0, Day 1, individual mice F4-F6): 23.8 and 21.5 and 22; Changes in body weight after the single administration ([3]; 1000 mg/kg P.O once on day 0, Day 2, individual mice F4-F6): 23.5 and 21.9 and 21.7; Changes in body weight after the single administration ([3]; 1000 mg/kg P.O once on day 0, Day 3, individual mice F4-F6): 24.1 and 21.8 and 20.3; Changes in body weight after the single administration ([3]; 1000 mg/kg P.O once on day 0, Day 4, individual mice F4-F6): 24.3 and 21.8 and 22.7; Changes in body weight after the single administration ([3]; 1000 mg/kg P.O once on day 0, Day 5, individual mice F4-F6): 23.8 and 21.6 and 23.4; Changes in body weight after the single administration ([3]; 1000 mg/kg P.O once on day 0, Day 6, individual mice F4-F6): 23.4 and 21.6 and 22.8; Effect of single administration on body weight, activity and survival ([3]; female BALB/c mice, 1000 mg/kg once by oral gavage, observed 6 days, 1000 mg/kg): did not affect the body weight or activity; also recorded: did not affect the survival and body weight of the animals
